From publication PMC7539012, “Hyperphosphorylated tau aggregation and cytotoxicity modulators screen identified prescription drugs linked to Alzheimer's disease and cognitive functions” (Scientific Reports, 2020)
Counter-ions that a name gives are not always drawn. Like-named read-outs stand apart in the source and are kept apart here.

What was measured:
p-tau = target: T1, p-tau (Homo sapiens, UniProt P10636); test: p-tau aggregation assay, dose response (ThS fluorescence, inducer-free); assay type: biochemical; conditions: for effect on p-tau aggregation (16-h net change of ThS fluorescence): 6.25-150 µM benzodiazepine
T1 construct: made in house; host or cells: E. coli (PIMAX system)
Protocol: Aggregation of 6-µM p-tau under the influence of 30 µM of each of the library compounds or a DMSO vehicle control was monitored in 384-well plates every 10 min for ThS fluorescence changes over 16 h. To assess the quality of the high-throughput p-tau aggregation reactions, we used the T0 and T16hr ThS fluorescence units of no-compound control reactions to calculate the Z′-factor and coefficient of variation (CV), two commonly used criteria for robustness of high-throughput screens (HTS)[62]. A Z′-factor greater than 0.5 and CV smaller than 10% indicate robustness. […] To identify compounds with significant p-tau aggregation modulation, the net change of ThS fluorescence was calculated from all reactions (see Supplemental Table 1 for complete listing).
Aggregation of 6 µM of p-tau was done in the presence of the indicated concentrations of either compound. […] P-tau aggregation reactions with the C291S C322S (C/S) mutant p-tau were done in the presence of the indicated amounts of either compound. Shown are net changes of ThS over 16 h.
Given the tremendous socioeconomical burdens of AD, measures that prevent or delay the onset of the devastating neurodegeneration of AD will be highly impactful. If hyperphosphorylated tau-inflicted neuronal damages are an underpinning for AD and other tauopathies, enhancers of p-tau aggregation (PTAEs) may be risk factors for neurodegeneration. […] Prednicarbate is a synthetic corticosteroid for dermatological use, and carmofur (1-hexylcarbamoyl-5-fluorouracil) is an anti-neoplastic pyrimidine analogue. […] BZDs are among the most widely prescribed medication, in particular to the elderly, for depression and insomnia[70],[71]. We hypothesized that certain BZDs acted as a PTAE to potentiate p-tau aggregation and cytotoxicity. […] We therefore randomly picked nine prescription BZDs for p-tau aggregation assessment (Fig. 6; see Supplemental Fig. 5 for chemical structures). To 6-µM p-tau aggregation reactions, increasing doses of each of these BZDs were added.
Prednicarbate, a synthetic steroid, served as a PTAE control (yellow bars).
The aggregation assays over the course of this project have been done with multi-plate readers from different sources.
A common mix of 6 µM p-tau, 20 mM Tris pH 7.4, 1 mM DTT, and 20 µM ThS was assembled and dispensed to 384-well low-volume plates (10 µl per well) using BioTek EL406 Washer, followed by the addition of 150 nl of the Prestwick Library compounds (final concentration of 30 µM per well) or DMSO in a Beckman Coulter Biomek FX^P workstation. Each plate was covered with an Optical Adhesive Film and incubated at 37 °C for about 10 min. ThS fluorescence was measured every 10 min at 440/490 nm for 16 h by Biotek Synergy Neo Plate Reader. […] The real-time kinetics of ThS signals were collected using Gen5 software.

[1] = system: C291S C322S (C/S) and C291A C322A (C/A) mutant p-tau; test: aggregation of C/S or C/A mutant p-tau (ThS net change); assay type: biochemical; conditions: increasing doses of compound
Protocol: Figure 3 R-(−)-apomorphine and raloxifene are p-tau aggregation inhibitors (PTAIs) that act independently of the redox state of p-tau. (a) and (b) P-tau aggregation inhibition dose response curves of R-(−)-apomorphine and raloxifene. Aggregation of 6 µM of p-tau was done in the presence of the indicated concentrations of either compound. (c) Both R-(−)-apomorphine and raloxifene act independently of the two cysteine residues of p-tau. P-tau aggregation reactions with the C291S C322S (C/S) mutant p-tau were done in the presence of the indicated amounts of either compound. Shown are net changes of ThS over 16 h.
Many “hits” from prior tau-based HTS were non-selective redox modulators, due most likely to the susceptibility of unmodified tau fibrils to the oxidation of two cysteine residues of tau, C291 and C322. Because p-tau aggregation was not affected by changing the two cysteine residues to alanine or serine, we suspected that R-(−)-apomorphine and raloxifene would act independently of these two cysteine. […] By itself, the C/S p-tau gained 130 units of ThS fluorescence over the course of the aggregation reaction (blue column). With increasing doses of either compound, the net gain of ThS fluorescence decreased progressively. […]

SH-SY5Y cells = test: cells
Protocol: (see below). […] PI is excluded by living cells, but diffuses into dead cells where it binds nucleic acid and emits fluorescence. FDA/PI differential staining thus provides a quantitative assessment of cellular viability. The blue curves in Fig. 4a,b depict the cellular viability after treatment with 0–0.8 µM of p-tau.
P-tau (without pre-aggregation) and compounds were added together to cells. Cell viability was quantified by FDA and PI differential staining 24 h later. […] Cellular viability was characterized as above and plotted against the compound concentration. Trend lines in panels (a)–(c) were obtained with the dose response curve fitting function of the software Origin (Origin Pro 8, OriginLab Corporation, Northampton, MA, USA). (d) Representative images of apoptotic cells after treatment of p-tau. SH-SY5Y cells were treated with 0.6 µM of p-tau for 12 h before harvesting for annexin V and PI staining. […] The percentage of apoptotic SH-SY5Y cells was quantified by annexin V and PI double staining of cells receiving 12 h of the indicated treatment under each column in the graph. Error bars are standard deviations; n = 3.
SH-SY5Y cells were treated with 0–0.6 µM of p-tau in conjunction with varying doses of nitrazepam, prazepam or devazepide. […] The red dotted lines indicate 50% viability. Curve fitting was done with the dose–response fitting function of the software Origin (version 8, OriginLab Inc.). The number in parentheses represents the concentration (in µM) of the indicated compound.
Cell viability assays were tested according to reference[60] with modifications. PTAIs were typically added to cells along with (Fig. 4) or after p-tau was added to cells (Fig. 5). For PTAEs, 10 × concentration of p-tau and the test compounds were assembled for pre-aggregation (without heparin or ThS) for 48 h before adding 10 µl to 100 µl of cells in 96-well plates. Twenty-four or 48 h after the addition of protein/compound, cells were trypsinized and transferred to microcentrifuge tubes, and pelleted at 1000 × g for 5 min at room temperature for FDA, PI, annexin V, and ThS staining. For PI/ThS double staining, cell pellets were resuspended in 20 mM Tris, pH7.4 buffer and incubated with 100 µM ThS for 5 min at room temperature. 5-µg/ml propidium iodide was then added to cell suspension for observation under a microscope.
Supplemental Figure 2. […] SH-SY5Y cells were treated with the indicated concentrations p-tau and compounds (in µM) for 20 hours before FDA/PI differential staining and microscopic quantification. […] 0.2 or 0.4 µM of p-tau and 30 µM of each compound were pre-incubated in aggregation reactions for 24 hours before the 20-hr cell treatment and cytotoxicity quantification. FDA and PI dual staining was performed to measure cellular viability. SH-SY5Y cells Compounds in panel (a) were added to cells along with p-tau without pre-incubation.

women = conditions: cited from earlier work
1N4R p-tau = system: T2, 1N4R p-tau; test: p-tau aggregation modulator screen of 1280-compound library (ThS fluorescence net change over 16 h); assay type: biochemical; design: key to PTAI>3SD: *: PTAI>3SD
T2 construct: made in house; host or cells: E. coli (PIMAX system)

[2] = design: method as in PMID 29401722; conditions: cited from earlier work
K18 P301L = system: K18 P301L; design: method as in earlier work; conditions: 15 µM K18 P301L, 40 µM heparin; ref Probe Report ML103, National Center for Biotechnology Information, 2010; read-out: AC50 for tau aggregation inhibition; cited from earlier work
[3] = SH-SY5Y, p-tau pre-incubated with compound
[4] = flag: p-tau aggregation inhibitor, ThS net change more than 3 SD from mean
[5] = library screen, ThS fluorescence net change over 16 h with p-tau
[6] = 50 or 200 µM compound, heparin-free

T1 sequence (P10636 1-412 isoform P10636-7): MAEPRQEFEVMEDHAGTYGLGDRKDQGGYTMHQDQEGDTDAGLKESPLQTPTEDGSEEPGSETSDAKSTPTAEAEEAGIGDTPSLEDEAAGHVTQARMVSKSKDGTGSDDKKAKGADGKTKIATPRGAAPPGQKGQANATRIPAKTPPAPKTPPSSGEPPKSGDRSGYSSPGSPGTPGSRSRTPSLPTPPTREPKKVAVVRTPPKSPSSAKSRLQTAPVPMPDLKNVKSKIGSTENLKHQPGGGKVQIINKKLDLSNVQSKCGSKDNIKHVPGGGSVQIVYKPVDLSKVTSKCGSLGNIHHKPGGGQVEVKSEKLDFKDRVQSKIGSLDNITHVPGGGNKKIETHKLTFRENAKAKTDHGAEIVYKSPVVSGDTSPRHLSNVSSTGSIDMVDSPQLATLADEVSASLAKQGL

O=C(c1ccc(OCCN2CCCCC2)cc1)c1c(-c2ccc(O)cc2)sc2cc(O)ccc12 [Raloxifene, raloxifene hydrochloride]
EC50 (p-tau; 6 µM p-tau, ThS fluorescence): 31.2 µM
effect on p-tau aggregation (p-tau; 50 µM compound): completely blocked p-tau aggregation
aggregation of C/A or C/S mutant p-tau [1]: effectively inhibited
EC50 (SH-SY5Y cells; Homo sapiens, SH-SY5Y, read-out: EC50, concentration of compound to reduce p-tau cytotoxicity by 50%, SH-SY5Y, 0.8 µM p-tau): 4.8 µM
risk of mild cognitive impairment (MCI) (women; 3-year trial, 5386 participants, 120 mg daily): reduced risks of mild cognitive impairment (MCI)
benefit for AD treatment (women; 12-month trial, 42 women with late-onset AD of mild to moderate severity): no significant benefits

O=C1CN=C(c2ccccc2)c2cc(Cl)ccc2N1CC1CC1 [prazepam]
effect on p-tau aggregation (16-h net change of ThS fluorescence) (p-tau; 6 µM p-tau): enhanced p-tau aggregation in a dose-dependent manner
effect on p-tau cytotoxicity (cell death curve, LD50) (SH-SY5Y cells; [3]): decreasing LD50

CN1C(=O)CN=C(c2ccccc2)c2cc([N+](=O)[O-])ccc21 [nimetazepam]
effect on p-tau aggregation (16-h net change of ThS fluorescence) (p-tau; 6 µM p-tau): did not

CC(C)/N=c1\cc2n(-c3ccc(Cl)cc3)c3ccccc3nc-2cc1Nc1ccc(Cl)cc1 [Clofazimine, clofazimine, reference compound]
PTAI>3SD (1N4R p-tau; [4]): *
ThS net change (1N4R p-tau; [5]): -196
EC50 (p-tau; 6 µM p-tau, ThS fluorescence): 68 µM
p-tau cytotox (SH-SY5Y cells): No change

O=C1CN=C(c2ccccc2)c2cc(Cl)ccc2N1 [nordiazepam]
effect on p-tau aggregation (16-h net change of ThS fluorescence) (p-tau; 6 µM p-tau): did not

NNc1nncc2ccccc12 [Hydralazine, hydralazine hydrochloride]
EC50 (p-tau; 6 µM p-tau, ThS fluorescence): 21.8 µM
p-tau cytotox (SH-SY5Y cells): No change

O=C1CN=C(c2ccccc2)c2cc([N+](=O)[O-])ccc2N1 [nitrazepam]
effect on p-tau aggregation (16-h net change of ThS fluorescence) (p-tau; 6 µM p-tau): did not
effect on p-tau cytotoxicity (cell death curve, LD50) (SH-SY5Y cells; [3]): did not alter the cytotoxicity of p-tau at all

CCC(C)n1ncn(-c2ccc(N3CCN(c4ccc(OCC5COC(Cn6cncn6)(c6ccc(Cl)cc6Cl)O5)cc4)CC3)cc2)c1=O (stereo not shown) [Itraconazole, itraconazole, reference compound]
PTAI>3SD (1N4R p-tau; [4]): *
ThS net change (1N4R p-tau; [5]): -31
EC50 (p-tau; 6 µM p-tau, ThS fluorescence): 10.6 µM
p-tau cytotox (SH-SY5Y cells): No change

COC1=C(OC)C(=O)C(CCCCCCCCCCO)=C(C)C1=O [Idebenone, idebenone]
PTAI>3SD (1N4R p-tau; [4]): *
ThS net change (1N4R p-tau; [5]): -1
EC50 (p-tau; 6 µM p-tau, ThS fluorescence): 10.5 µM
bioavailability [2]: very low bioavailability

COC(=O)C1=C(C)NC(C)=C(C(=O)OC)C1c1ccccc1[N+](=O)[O-] [Nifedipine, nifedipine, reference compound]
PTAI>3SD (1N4R p-tau; [4]): *
ThS net change (1N4R p-tau; [5]): -97
EC50 (p-tau; 6 µM p-tau, ThS fluorescence): 24.3 µM

Oc1c(Cl)cc(Cl)c(Cl)c1Cc1c(O)c(Cl)cc(Cl)c1Cl [Hexachlorophene, hexachlorophene]
PTAI>3SD (1N4R p-tau): *
ThS net change (1N4R p-tau): 74
EC50 (p-tau): 17.8 µM

Nc1scc2c(C(=O)O)nn(-c3ccccc3)c(=O)c12 [compound 2]
p-tau aggregation reduced to (p-tau; 400 µM compound): 57%
p-tau aggregation reduced to (p-tau; 1 mM compound): 46%
effect on p-tau aggregation (p-tau; [6]): moderate inhibition
AC50 (K18 P301L): 6.8 ± 0.4 µM

CN1C(=O)CN=C(c2ccccc2)c2cc(Cl)ccc21 [diazepam]
effect on p-tau aggregation (16-h net change of ThS fluorescence) (p-tau; 6 µM p-tau): enhanced p-tau aggregation in a dose-dependent manner

CN1C(=O)[C@@H](NC(=O)c2cc3ccccc3[nH]2)N=C(c2ccccc2)c2ccccc21 [devazepide]
effect on p-tau aggregation (16-h net change of ThS fluorescence) (p-tau; 6 µM p-tau): enhanced p-tau aggregation in a dose-dependent manner
effect on p-tau cytotoxicity (cell death curve, LD50) (SH-SY5Y cells): decreasing LD50

CN1C(=O)C(O)N=C(c2ccccc2)c2cc(Cl)ccc21 (stereo not shown) [temazepam]
effect on p-tau aggregation (16-h net change of ThS fluorescence) (p-tau; 6 µM p-tau): enhanced p-tau aggregation in a dose-dependent manner

COC(=O)C1=C(C)NC(C)=C(C(=O)OCC(C)C)C1c1ccccc1[N+](=O)[O-] (stereo not shown) [Nisoldipine, nisoldipine, reference compound]
PTAI>3SD (1N4R p-tau; [4]): *
ThS net change (1N4R p-tau; [5]): -29
p-tau cytotox (SH-SY5Y cells): No change

CCOC(=O)c1nn(-c2ccccc2)c(=O)c2c(N)scc12 [compound 1]
effect on p-tau aggregation (p-tau; [6]): no effect on p-tau aggregation
AC50 (K18 P301L): 3.3 ± 0.2 µM

O=C1Nc2ccc(Cl)cc2C(c2ccccc2)=NC1O (stereo not shown) [oxazepam]
effect on p-tau aggregation (16-h net change of ThS fluorescence) (p-tau; 6 µM p-tau): did not
